Experiments:
Straub tail = Straub tail test (narcotic agonist effect), oral, mice; assay type: in vivo, mice (CF1 S female); conditions: tail erected 90° or more within 24 minutes
Protocol: Narcotic analgesics produce in mice an erection and arching of the tail (90° or more) which is referable to spinal cord stimulation. This Straub tail reaction is not produced by other analgesics, including the narcotic antagonists.
The method used was modified from Shemano, I., and Wendel, H., Tox. Appl. Pharm., 6, 334-9 (1964). CF1 S female mice (18-21 g), 10-20 mice per dose, were intubated with log scaled doses of analgesic in 1% aqueous methylcellulose. A positive Straub tail response was recorded if a tail was erected 90° or more for 5 seconds at any time within 24 minutes after dosing. A quantal Straub tail ED50 was calculated by the moving average method [Thompson, W. R., Bact. Rev., 11, 115-145 (1947)].
(§1) Most of the compounds were analgetic in the mouse antiphenylquinone test system and only a few caused Straub tail. Most also were antagonists in the mouse anti-Straub tail test.
(§2) On the other hand, the very high Straub tail ED50 's indicate that most of the compounds of the invention have very low likelihood of being addictive. […] Thus, the compounds of the invention are characterized by rapid onset of action, high oral potency and the ability to alleviate deepseated pain. Furthermore, abuse liability for most of the compounds should be extremely low or non-existent.

[1] = tested on: morphine-induced Straub tail; conditions: mice; Blumberg et al. 1968; cited from earlier work
opiate analgesics = conditions: background; cited from earlier work
[2] = tested on: phenylquinone-induced writhing; experiment: Phenylquinone writhing (PQW) analgesic test, oral, mice; assay type: in vivo, mice (female white); conditions: for EFFECT ED50, Oral Anti-PQW: mice, phenylquinone writhing
Protocol: A standard procedure for detecting and comparing the analgesic activity of compounds in this series for which there is good correlation with human efficacy is the standard phenylquinone writhing test modified from Siegmund, et al., Proc. Soc. Exp. Biol. Med., 95, 729 (1957). A test compound suspended in 1% methocel® was given orally to fasted (17-21 hours) female white mice, 5-20 animals per double blind test. Aqueous (0.01% phenyl-p-benzoquinone) phenylquinone was injected intraperitoneally at 24 minutes later using 0.20 ml per mouse. […] The effective analgesic dose for 50% of the mice (ED50) was calculated by the moving average method of Thompson, W. R., Bact. Rev., 11, 115-145 (1947).
as §1, §2

[3] = tested on: morphine-induced Straub tail; experiment: Anti-Straub tail test (antagonism of morphine-induced Straub tail), mice; assay type: in vivo, mice (female CF1 S)
Protocol: This property is the basis of a mouse test for narcotic antagonists.
Female CF1 S mice (fasted 17-21 hrs.), 5 per dose, were injected orally or subcutaneously with test drug at 0.67, 2, 6, 18, 54 and 162 mg/kg or other appropriate doses in 0.20 ml 1% Methocel® per mouse. Five minutes later, 30 mg/kg of morphine sulfate in 0.20 ml 1% Methocel® per mouse was given intraperitoneally starting ten minutes later, the mice were observed continuously for 5 minutes for evidence of Straub tail. Prevention of a 90° Straub tail during this observation period was taken as indication of narcotic antagonist ability.
as §1, §2

[4] = background; cited from earlier work
[5] = Lasagna and Beecher 1954; cited from earlier work

SMILES: CN1CC[C@]23c4cccc(O)c4O[C@H]2CCC[C@H]3C1 (relative stereo) [Example 3, 3-Methyl-2,3,4,4aα,5,6,7,7aα-octahydro-1H-benzo[4,5]furo[3,2-e]isoquinolin-9-ol]
- ED50 (Straub tail; Mus musculus, 0.4 h): 135 mg/kg

SMILES: C=CCN1CC[C@]23c4c5ccc(O)c4O[C@H]2C(=O)CC[C@@]3(O)[C@H]1C5 [naloxone]
- prevention of morphine-induced Straub tail [1]: prevent the induction of Straub tail in mice
- antagonism of emetic effect of meperidine (opiate analgesics): antagonizes the emetic effect of meperidine
- antagonism of opiate analgesics (opiate analgesics): effectively antagonize overdoses of the opiate analgesics

SMILES: CN1CCC23c4cccc(O)c4OC2CCCC3C1 (single isomer, unassigned) [Example 3 (-) isomer]
- EFFECT ED50, Oral Anti-PQW ([2]; listed as 3 (-) isomer): 2.1
- EFFECT ED50, Oral Straub-Tail (Straub tail): > 135
- EFFECT ED50, Anti-Straub Tail (s.c.) ([3]; subcutaneous, mice, vs morphine sulfate 30 mg/kg i.p., listed as 3 (-) isomer): 0.14

SMILES: CN1CC[C@]23c4c5ccc(O)c4O[C@H]2[C@@H](O)C=C[C@H]3[C@H]1C5 [Morphine]
- EFFECT ED50, Oral Anti-PQW [2]: 3.0
- EFFECT ED50, Oral Straub-Tail (Straub tail): 48

SMILES: C=CCN1CC[C@]23CCCC[C@H]2[C@H]1Cc1ccc(O)cc13 [levallorphan]
- intrinsic analgesic activity [4]: some analgesic effects by themselves
- antagonism of opiate analgesics (opiate analgesics): effectively antagonize overdoses of the opiate analgesics

SMILES: COc1cccc2c1O[C@H]1CCC[C@H]3CN(Cc4ccccc4)CC[C@@]231 (relative stereo) [Example 10, 3-Benzyl-9-methoxy-2,3,4,4aα,5,6,7,7aα-octahydro-1H-benzo[4,5]furo[3,2-e]isoquinoline]
- narcotic antagonism ([3]; mouse anti-Straub tail test): pure narcotic antagonists

SMILES: CN1CCC23c4cccc(O)c4OC2CCCC3C1 (single isomer, unassigned) [Example 3 (+)isomer]
- EFFECT ED50, Oral Anti-PQW ([2]; listed as 3 (+)isomer): 61
- EFFECT ED50, Oral Straub-Tail (Straub tail): > 135
- EFFECT ED50, Anti-Straub Tail (s.c.) ([3]; subcutaneous, mice, vs morphine sulfate 30 mg/kg i.p., listed as 3 (+)isomer): 3.3

SMILES: C=CCN1CC[C@]23c4c5ccc(O)c4O[C@H]2[C@@H](O)C=C[C@H]3[C@H]1C5 [nalorphine]
- intrinsic analgesic activity [4]: some analgesic effects by themselves
- analgetic properties in man [5]: also has analgetic properties in man
- prevention of morphine-induced Straub tail [1]: prevent the induction of Straub tail in mice
- antagonism of opiate analgesics (opiate analgesics): effectively antagonize overdoses of the opiate analgesics

SMILES: Oc1cccc2c1O[C@H]1CCC[C@H]3CN(CC4CC4)CC[C@@]231 (relative stereo) [Example 5, 3-Cyclopropylmethyl-2,3,4,4aα,5,6,7,7aα-octahydro-1H-benzo[4,5]furo[3,2-e]isoquinolin-9-ol]
- analgesic potency relative to morphine ([2]; mouse analgesia data): several times greater potency than morphine

SMILES: COc1cccc2c1O[C@H]1CCC[C@H]3CN(CC#N)CC[C@@]231 (relative stereo) [Example 20, 9-Methoxy-2,3,4,4aα,5,6,7,7aα-octahydro-1H-benzo[4,5]furo[3,2-e]isoquinoline-3-acetonitrile]
- ED50 ([3]; Mus musculus, sc, subcutaneous, mice, vs morphine sulfate 30 mg/kg i.p., read-out: EFFECT ED50, Anti-Straub Tail (s.c.)): 27 mg/kg

Reference: patent US4260761A, “Intermediates for the preparation of octahydro-1H-benzo[4,5]furo[3,2,-e]-isoquinoline analgesic and narcotic antagonistic compounds” (priority 1980, dated 1981)
